SMILES strings stand for the structures. pIC50: −log10 of the molar value.

For the experiment, the system named is Radical scavenging activity. Put plainly: Antioxidant activity assessed as DPPH free radical scavenging activity after 30 mins in dark by spectrophotometry. In kind it is functional. (Loss of DPPH colour is used to gauge radical scavenging.)
One may read the pIC50 as the IC50 on a negative log10 scale, so that one unit is a factor of ten. Take `O=C(/C=C/c1ccc(O)c(O)c1)O[C@@H]1C[C@](O)(C(=O)O)C[C@@H](O)[C@H]1O` [CHLOROGENIC ACID]: the pIC50 was 4.70. For `COC(=O)C1(O)C[C@@H](O)[C@@H](O)[C@H](OC(=O)/C=C/c2ccc(O)c(O)c2)C1` (stereo not given in full), the negative logarithm of the IC50 (pIC50) was 4.73. The value for `O=C(O[C@H]1[C@H]([C@@]2(c3ccc(O)c(O)c3)CC[C@H](Cc3ccc(O)c(O)c3)C(=O)O2)OC[C@@H]1O)c1cc(O)cc(O)c1` [CHIMARRHININ] was 5.12; that for `COC(=O)C1(O)C[C@@H](O)[C@@H](O)[C@H](OC(=O)/C=C\c2ccc(O)c(O)c2)C1` (stereo not given in full) was 4.73; that for `Cc1cc(C(C)(C)C)c(O)c(C(C)(C)C)c1` [BUTYLATED HYDROXYTOLUENE] was 4.20.

The record behind these values is ChEMBL document CHEMBL1765041, “An unprecedented neolignan skeleton from Chimarrhis turbinata” (J Nat Prod, 2011).
